Columns and labels:
HL-60 [1] = assay: Compound was tested in vitro for its ability to induce superoxide generation in HL-60 cells at concentration 10e-6 M; type: functional, Homo sapiens
HL-60 [2] = assay: (§1) Compound was tested in vitro for percent EBV0EA-inducing activity in […] cells at concentration 10e-6 M; type: functional, cell-based, Homo sapiens
HL-60 [3] = assay: Compound was tested in vitro for percent EBV0EA-inducing activity in […] cells at concentration 10e-5 M; type: functional, cell-based, Homo sapiens
[4] = target: T1, Protein kinase C eta type (Homo sapiens, UniProt P24723); assay: Displacement of 3[H]PDBu from Protein kinase C eta C1b domain
HL-60 [5] = assay: Compound was tested in vitro for percent EBV0EA-inducing activity in […] cells at concentration 10e-7 M; type: functional, Homo sapiens
HL-60 [6] = assay: Compound was tested in vitro for percent EBV0EA-inducing activity in […] cells at concentration 10e-8 M; type: functional, Homo sapiens
[7] = target: T2, Protein kinase C epsilon type (Homo sapiens, UniProt Q02156); assay: Displacement of 3[H]PDBu from Protein kinase C epsilon C1b domain
T2 sequence (Q02156 whole entry): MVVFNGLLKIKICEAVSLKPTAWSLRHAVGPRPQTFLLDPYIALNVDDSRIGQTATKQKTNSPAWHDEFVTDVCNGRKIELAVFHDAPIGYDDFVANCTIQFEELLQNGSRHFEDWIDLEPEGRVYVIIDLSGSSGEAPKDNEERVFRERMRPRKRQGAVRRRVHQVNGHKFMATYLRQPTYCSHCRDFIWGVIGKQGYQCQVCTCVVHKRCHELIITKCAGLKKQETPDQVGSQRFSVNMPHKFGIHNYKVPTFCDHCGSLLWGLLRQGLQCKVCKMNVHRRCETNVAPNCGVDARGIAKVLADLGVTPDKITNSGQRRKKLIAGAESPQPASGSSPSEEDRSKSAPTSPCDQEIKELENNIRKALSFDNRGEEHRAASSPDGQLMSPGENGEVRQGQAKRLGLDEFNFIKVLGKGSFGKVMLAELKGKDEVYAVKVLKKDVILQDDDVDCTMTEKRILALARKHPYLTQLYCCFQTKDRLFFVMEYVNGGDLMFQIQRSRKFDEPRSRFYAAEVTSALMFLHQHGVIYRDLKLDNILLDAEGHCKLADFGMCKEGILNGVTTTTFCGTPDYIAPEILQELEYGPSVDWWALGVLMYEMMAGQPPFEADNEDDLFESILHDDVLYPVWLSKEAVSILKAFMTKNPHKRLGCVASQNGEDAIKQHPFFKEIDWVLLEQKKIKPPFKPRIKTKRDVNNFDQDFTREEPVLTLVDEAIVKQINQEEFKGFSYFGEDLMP

[8] = target: T3, Protein kinase C beta type (Homo sapiens, UniProt P05771); assay: Displacement of 3[H]PDBu from Protein kinase C beta C1a domain
[9] = target: T4, Protein kinase C alpha type (Homo sapiens, UniProt P17252); assay: Displacement of 3[H]PDBu from Protein kinase C alpha C1b domain
[10] = target: T3, Protein kinase C beta type; assay: Displacement of 3[H]PDBu from Protein kinase C beta C1b domain
[11] = target: T2, Protein kinase C epsilon type; assay: Displacement of 3[H]PDBu from Protein kinase C epsilon C1a domain
HL-60 [12] = assay: as §1; type: functional, Homo sapiens
[13] = target: T4, Protein kinase C alpha type; assay: Displacement of 3[H]PDBu from Protein kinase C alpha C1a domain
[14] = target: T5, Protein kinase C gamma type (Homo sapiens, UniProt P05129); assay: Displacement of 3[H]PDBu from Protein kinase C gamma C1b domain
[15] = target: T5, Protein kinase C gamma type; assay: Displacement of 3[H]PDBu from Protein kinase C gamma C1a domain
[16] = target: Protein kinase C theta type (Homo sapiens, UniProt Q04759); assay: Displacement of 3[H]PDBu from Protein kinase C theta C1b domain
HL-60 [17] = assay: Compound was tested in vitro for its ability to induce superoxide generation in HL-60 cells at concentration 10e-7 M; type: functional, Homo sapiens
[18] = target: T6, Protein kinase C delta type (Homo sapiens, UniProt Q05655); assay: Displacement of 3[H]PDBu from Protein kinase C delta C1b domain
[19] = target: T6, Protein kinase C delta type; assay: Displacement of 3[H]PDBu from Protein kinase C delta C1a domain
[20] = target: T1, Protein kinase C eta type; assay: Displacement of 3[H]PDBu from Protein kinase C eta C1a domain
HL-60 [21] = assay: Compound was tested in vitro for its ability to induce superoxide generation in HL-60 cells at concentration 10e-8 M; type: functional, Homo sapiens
HL-60 [22] = assay: Compound was tested in vitro for its ability to induce superoxide generation in HL-60 cells at concentration 10e-9 M; type: functional, Homo sapiens
HL-60 [23] = assay: Compound was tested in vitro for percent EBV0EA-inducing activity in […] cells at concentration 10e-9 M; type: functional, Homo sapiens

T6 sequence (Q05655 whole entry, the tested form may be a part): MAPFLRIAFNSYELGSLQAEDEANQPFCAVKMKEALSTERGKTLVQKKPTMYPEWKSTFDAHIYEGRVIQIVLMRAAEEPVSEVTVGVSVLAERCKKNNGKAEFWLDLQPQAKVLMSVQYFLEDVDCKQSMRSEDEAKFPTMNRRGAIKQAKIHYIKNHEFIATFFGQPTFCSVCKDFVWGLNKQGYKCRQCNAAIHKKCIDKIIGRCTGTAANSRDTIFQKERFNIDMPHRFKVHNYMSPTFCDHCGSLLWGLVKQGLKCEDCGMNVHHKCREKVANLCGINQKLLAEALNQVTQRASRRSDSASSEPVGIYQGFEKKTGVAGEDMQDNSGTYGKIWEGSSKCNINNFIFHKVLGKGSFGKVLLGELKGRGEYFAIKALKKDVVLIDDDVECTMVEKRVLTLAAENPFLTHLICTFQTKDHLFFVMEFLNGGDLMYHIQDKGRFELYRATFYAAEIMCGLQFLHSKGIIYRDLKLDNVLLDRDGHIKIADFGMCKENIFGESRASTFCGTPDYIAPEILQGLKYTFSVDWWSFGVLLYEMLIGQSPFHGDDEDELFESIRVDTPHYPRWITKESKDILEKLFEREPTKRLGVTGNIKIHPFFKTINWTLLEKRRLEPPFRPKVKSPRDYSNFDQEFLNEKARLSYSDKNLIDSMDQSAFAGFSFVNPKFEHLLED
T1 sequence (P24723 whole entry, the tested form may be a part): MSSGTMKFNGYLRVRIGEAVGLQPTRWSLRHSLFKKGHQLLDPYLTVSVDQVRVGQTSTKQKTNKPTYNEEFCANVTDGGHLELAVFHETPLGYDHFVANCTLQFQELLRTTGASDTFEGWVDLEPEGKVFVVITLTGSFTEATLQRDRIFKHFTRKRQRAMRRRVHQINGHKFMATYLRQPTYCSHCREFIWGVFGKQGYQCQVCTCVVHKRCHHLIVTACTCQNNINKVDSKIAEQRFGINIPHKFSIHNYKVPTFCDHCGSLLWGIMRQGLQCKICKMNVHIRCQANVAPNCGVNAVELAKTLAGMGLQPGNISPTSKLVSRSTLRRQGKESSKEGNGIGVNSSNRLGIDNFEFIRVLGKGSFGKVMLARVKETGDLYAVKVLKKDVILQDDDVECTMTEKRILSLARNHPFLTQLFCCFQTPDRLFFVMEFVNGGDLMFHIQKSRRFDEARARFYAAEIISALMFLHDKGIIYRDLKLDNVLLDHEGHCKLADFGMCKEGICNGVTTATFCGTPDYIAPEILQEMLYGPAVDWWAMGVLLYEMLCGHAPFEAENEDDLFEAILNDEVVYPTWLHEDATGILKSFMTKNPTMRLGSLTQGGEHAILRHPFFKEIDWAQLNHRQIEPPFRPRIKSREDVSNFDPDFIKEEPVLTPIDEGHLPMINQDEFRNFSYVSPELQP
T3 sequence (P05771 whole entry, the tested form may be a part): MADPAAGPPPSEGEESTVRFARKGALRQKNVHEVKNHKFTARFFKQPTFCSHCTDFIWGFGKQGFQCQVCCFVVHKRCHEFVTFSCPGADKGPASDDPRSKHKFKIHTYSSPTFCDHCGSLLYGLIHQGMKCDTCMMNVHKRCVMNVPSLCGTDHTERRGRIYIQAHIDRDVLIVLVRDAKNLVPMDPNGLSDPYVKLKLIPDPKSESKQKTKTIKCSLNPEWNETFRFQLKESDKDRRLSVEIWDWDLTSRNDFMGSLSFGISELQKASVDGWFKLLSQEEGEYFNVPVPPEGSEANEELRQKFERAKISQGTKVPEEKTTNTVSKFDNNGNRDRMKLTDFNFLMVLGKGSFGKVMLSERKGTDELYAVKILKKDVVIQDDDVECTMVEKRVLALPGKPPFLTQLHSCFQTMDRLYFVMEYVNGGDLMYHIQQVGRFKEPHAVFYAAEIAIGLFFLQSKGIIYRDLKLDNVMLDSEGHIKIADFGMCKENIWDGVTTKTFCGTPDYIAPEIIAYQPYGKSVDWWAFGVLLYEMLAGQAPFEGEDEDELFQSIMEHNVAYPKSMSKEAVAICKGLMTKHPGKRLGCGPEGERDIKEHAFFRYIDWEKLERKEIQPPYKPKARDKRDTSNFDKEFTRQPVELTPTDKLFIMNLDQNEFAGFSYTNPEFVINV
Sequence of Protein kinase C theta type (Q04759 whole entry, the tested form may be a part): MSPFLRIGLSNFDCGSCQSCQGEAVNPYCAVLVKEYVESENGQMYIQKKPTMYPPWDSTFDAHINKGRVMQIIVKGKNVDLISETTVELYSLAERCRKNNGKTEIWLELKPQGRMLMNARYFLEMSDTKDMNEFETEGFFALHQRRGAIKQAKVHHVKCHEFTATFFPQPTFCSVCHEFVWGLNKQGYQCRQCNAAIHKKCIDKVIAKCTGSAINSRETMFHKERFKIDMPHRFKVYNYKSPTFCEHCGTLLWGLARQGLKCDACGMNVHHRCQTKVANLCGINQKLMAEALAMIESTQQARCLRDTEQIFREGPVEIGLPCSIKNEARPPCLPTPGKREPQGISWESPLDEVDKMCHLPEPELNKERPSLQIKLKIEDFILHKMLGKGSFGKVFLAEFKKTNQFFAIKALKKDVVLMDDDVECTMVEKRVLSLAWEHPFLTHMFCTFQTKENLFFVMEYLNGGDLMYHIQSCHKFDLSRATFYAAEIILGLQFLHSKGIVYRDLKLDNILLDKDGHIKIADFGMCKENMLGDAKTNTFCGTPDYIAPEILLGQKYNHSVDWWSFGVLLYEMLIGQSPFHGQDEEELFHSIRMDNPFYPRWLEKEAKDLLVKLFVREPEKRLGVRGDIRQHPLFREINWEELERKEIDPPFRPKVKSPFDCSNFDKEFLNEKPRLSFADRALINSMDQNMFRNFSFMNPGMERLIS

Structure (SMILES)	Activity (HL-60 [1])	Activity (HL-60 [5]) [%]	Activity (HL-60 [6]) [%]	Activity (HL-60 [12]) [%]	Activity (HL-60 [17])	Activity (HL-60 [21])	Activity (HL-60 [22])	Activity (HL-60 [23]) [%]	further results
CCCC(=O)O[C@@H]1[C@@H](C)[C@]2(O)[C@@H]3C=C(C)C(=O)[C@@H]3CC(CO)=C[C@H]2[C@@H]2C(C)(C)[C@]12OC(=O)CCC	0.05 nM min-1 (10e-6*cells)-1								Activity (HL-60 [2]): 2.7%; Activity (HL-60 [3]): 17.9%
CCCC(=O)O[C@@H]1[C@@H](C)[C@]2(O)[C@@H]3C=C(C)C(=O)[C@H]3CC(CO)=C[C@H]2[C@@H]2C(C)(C)[C@]12OC(=O)CCC	3.14 nM min-1 (10e-6*cells)-1	31.1	7	25.6	3.16 nM min-1 (10e-6*cells)-1	0.08 nM min-1 (10e-6*cells)-1	0.11 nM min-1 (10e-6*cells)-1	1.2	Ki [4]: 0.35 nM; Ki [7]: 0.58 nM; Ki [8]: 2.78 nM; Ki [9]: 13.9 nM; Ki [10]: 2.23 nM; Ki [11]: 4.49 nM; Ki [13]: 4.05 nM; Ki [14]: 1.84 nM; Ki [15]: 5.23 nM; Ki [16]: 0.73 nM; Ki [18]: 0.55 nM; Ki [19]: 70.2 nM; Ki [20]: 14.9 nM
CCCC(=O)O[C@@H]1[C@@H](C)[C@@]2(O)[C@@H](C=C(CO)C[C@]3(O)C(=O)C(C)=C[C@@H]23)[C@@H]2C(C)(C)[C@]12OC(=O)CCC	3.32 nM min-1 (10e-6*cells)-1	33.1	10.8	29.9	3.11 nM min-1 (10e-6*cells)-1	0.11 nM min-1 (10e-6*cells)-1	0 nM min-1 (10e-6*cells)-1	3.6	

— ChEMBL document CHEMBL1134710, “The C4 hydroxyl group of phorbol esters is not necessary for protein kinase C binding” (Bioorg Med Chem Lett, 2001)
